pEC50: −log10 of the molar value.
Legend:
MV4-11 tumor xenografts = test: MV4-11 tumor xenograft efficacy; type: in vivo, mice
Description: MV4-11 cells were propagated in vitro and implanted subcutaneous into the right flank of 9-week old female NCr nu/nu mice as described in Example 7. The animals were fed ad libitum water (reverse osmosis, 1 ppm Cl), and NIH 31 Modified and Irradiated Lab Diet® consisting of 18.0% crude protein, 5.0% crude fat, and 5.0% crude fiber. Fourteen days after tumor implantation, designated as Day 1 of the study, the animals were sorted into seven groups each consisting of ten mice with individual tumor volumes of 108 to 288 mm^3 and group mean tumor volumes (MTV) of 162 to 165 mm^3. On Day 1 of the study, dosing by oral gavage was initiated as follows: The dosing volume was 0.100 mL per 20 grams of body weight (5 mL/kg), and was scaled to the body weight of each individual animal. Group 1 mice received vehicle and served as the control group. Groups 2-4 received Compound 1 at 5, 11, and 25 mg/kg, respectively, qd×21. Groups 5-7 received Compound 2 at 5, 11, and 25 mg/kg, respectively, qd×21. Dosing solutions were prepared weekly by dissolving the appropriate amount of powder in 1% […] (DMA) in Labrasol® (vehicle) to yield a 5 mg/mL solution. The 5 mg/mL solution provided the 25 mg/kg dosage in a dosing volume of 5 mL/kg. An aliquot of the 5 mg/mL solution was diluted in the vehicle to concentrations of 2.2 and 1 mg/mL which provided the 11 and 5 mg/kg dosages, respectively, in a dosing volume of 5 mL/kg.
Tumors were measured using calipers twice per week. The study endpoint was defined as a mean tumor volume of 2000 mm^3 in the control group or 22 days, whichever came first and the study was terminated on Day 22. Animals were weighed daily on Days 1-5, then twice per week until the completion of the study. The mice were observed frequently for overt signs of any adverse, treatment related (TR) side effects, and clinical signs were recorded when observed. Individual body weight loss was monitored as per protocol and any animal whose weight exceeded the limits for acceptable body weight loss was euthanized. Group mean body weight loss also was monitored as per protocol. Dosing was to be suspended in any group whose weight exceeded the limits for acceptable mean body weight loss. If mean body weight recovered, then dosing may be resumed in that group, but at a lower dosage or less frequent dosing schedule. Acceptable toxicity was defined as a group mean body weight loss of less than 20% during the study and not more than 10% treatment-related (TR) deaths. Any dosing regimen resulting in greater toxicity was considered above the maximum tolerated dose (MTD). A death was classified as TR if attributable to treatment side effects as evidenced by clinical signs and/or necropsy, or may also be classified as TR if due to unknown causes during the dosing period or within 14 days of the last dose. A death was classified as non-treatment-related (NTR) if there was no evidence that death was related to treatment side effects.
Treatment efficacy was determined using data from the final day. The MTV (n) (the median tumor volume for the number of animals, n) on the final day was determined for each group. Group 1 mice that received vehicle p.o. qd×21 served as the control group for analysis of tumor growth inhibition (TGI) determined according to the formula % TGI=[1−(MTVdrug-treated/MTVcontrol)]×100. Treatment efficacy was also determined from the incidence and magnitude of regression responses observed during the study. Treatment may cause partial regression (PR) or complete regression (CR) of the tumor in an animal. In a PR response, the tumor volume was 50% or less of its Day 1 volume for three consecutive measurements during the course of the study, and equal to or greater than 13.5 mm^3 for one or more of these three measurements. In a CR response, the tumor volume was less than 13.5 mm^3 for three consecutive measurements during the course of the study.

C1498 = test: MTS cell proliferation assay, C1498; type: cell-based, murine; details: Mus musculus; for pEC50: C1498, 72 hr, read-out: MTS proliferation assay
Procedure: Cell proliferation was measured using the CellTiter 96 Aqueous Non-Radioactive Cell Proliferation Assay (Promega). […] MTS is bioreduced by cells into a formazan product that is soluble in tissue culture medium. The absorbance of the formazan product at 490 nm can be measured directly from assay plates without additional processing. The quantity of formazan product as measured by the amount of 490 nm absorbance is directly proportional to the number of living cells in culture. Cells were seeded into 96-well or 384-well clear plates in a volume of 200 μL (96-well) or 50 μL (384-well) at optimized densities ranging from 1,000 to 40,000 cells per well for 96-well plates or 1,200 to 25,000 cells per well for 384-well plates depending on cell-line. After 4-6 hr recovery, serially diluted compounds in DMSO were added to the cells using (0.1% v/v final DMSO concentration). Cells were then grown at 37° C. in a humidified incubator with 5% CO2 for 72 hr. A 20:1 [3-(4,5-dimethylthiazol-2-yl)-5-(3-carboxymethoxyphenyl)-2-(4-sulfophenyl)-2H-tetrazolium](MTS):phenazine methosulfate (PMS) solution in DPBS was made immediately before use, added to each well, and cells were incubated for 1.5 hr at 37° C. The absorbance at 490 nm was then measured using a platereader. Absorbance values were normalized as percent of control (cells incubated in the presence of 0.1% v/v DMSO). Sigmoidal dose-response curves were plotted using log(inhibitor) vs. response—Variable slope (four parameters) model with a top value constrained to 100% (GraphPad Prism version 6.00 for Windows, GraphPad Software, La Jolla California USA). […] To determine potential of compounds of the invention to affect viability of hematological cancers, cell lines representing various tumor types were selected and tested. […] In addition, two murine cell lines were tested: A20 […].

[1] = system: panel of 270 different human kinases; test: Kinase selectivity panel (Upstate/Millipore); type: biochemical; details: 10 μM, panel of 270 kinases
Procedure: The selectivity of Compound 1 and Compound 2 was evaluated in a panel of 270 different human kinases offered by Upstate (now Millipore).

SMILES | MTV (median tumor volume) on Day 22 (MV4-11 tumor xenografts; 5 mg/kg p.o. qd×21) | TGI (tumor growth inhibition) (MV4-11 tumor xenografts; 5 mg/kg p.o. qd×21, Day 22) | regression responses (PRs) (MV4-11 tumor xenografts; 5 mg/kg p.o. qd×21, ten mice) | MTV (median tumor volume) on Day 22 (MV4-11 tumor xenografts; 11 mg/kg p.o. qd×21) | TGI (tumor growth inhibition) (MV4-11 tumor xenografts; 11 mg/kg p.o. qd×21, Day 22) | regression responses (PRs) (MV4-11 tumor xenografts; 11 mg/kg p.o. qd×21, ten mice) | MTV (median tumor volume) on Day 22 (MV4-11 tumor xenografts; 25 mg/kg p.o. qd×21) | TGI (tumor growth inhibition) (MV4-11 tumor xenografts; 25 mg/kg p.o. qd×21, Day 22) | regression responses (PRs) (MV4-11 tumor xenografts; 25 mg/kg p.o. qd×21, ten mice) | inhibition at 0.2 µM (C1498; C1498, 200 nM, read-out: growth inhibition) | pEC50 (C1498) | number of kinases with inhibition greater than or equal to 90% (including PDK1) [1]
CNc1n[nH]c2ncc(-c3ccc(CNc4ncc(C#N)nc4C(=O)N[C@@H](C)c4ccc(F)c(F)c4)cc3)cc12 [Compound 2, 6-Cyano-3-[4-(3-methylamino-1H-pyrazolo[3,4-b]pyridin-5-yl)-benzylamino]-pyrazine-2-carboxylic acid [1-(3,4-difluoro-phenyl)-ethyl]-amide] | 320 mm^3 | 77% | no regression responses | 108 mm^3 | 92% | three | 40 mm^3 | 97% | eight | 80% | 7.35 | 20
C[C@H](NC(=O)c1nc(C#N)cnc1NCc1ccc(-c2cnc3[nH]nc(N)c3n2)cc1)c1ccc(F)c(F)c1 [Compound 1, 3-[4-(3-Amino-1H-pyrazolo[3,4-b]pyrazin-5-yl)-benzylamino]-6-cyano-pyrazine-2-carboxylic acid [1-(3,4-difluoro-phenyl)-ethyl]-amide] | 446 mm^3 | 69% | no regression responses | 288 mm^3 | 80% | no regression responses | 63 mm^3 | 96% | seven | – | 7.28 | 18

Source: patent US20240207258A1, “HETEROCYCLIC PDK1 INHIBITORS FOR USE TO TREAT CANCER” (Viracta Therapeutics, Inc., priority 2015, published 2024)
